Data as given in article PMC7217877, “N-AS-triggered SPMs are direct regulators of microglia in a model of Alzheimer’s disease” (Nature Communications, 2020).
Values joined by “and” are separate entries in the source; they are usually repeats but may differ in a detail not shown here. Equal values may be shown once.

What was measured:
COX2 WT = biological target: T1, COX2 WT (Homo sapiens, UniProt P35354); test: in vitro [14C] acetylation assay of purified COX2; format: biochemical; design: C14 radioactivity of COX2, acetylation assay (Fig 1h): unit not given here
T1 construct: His (N); made in house
T1 sequence (P35354 18-604): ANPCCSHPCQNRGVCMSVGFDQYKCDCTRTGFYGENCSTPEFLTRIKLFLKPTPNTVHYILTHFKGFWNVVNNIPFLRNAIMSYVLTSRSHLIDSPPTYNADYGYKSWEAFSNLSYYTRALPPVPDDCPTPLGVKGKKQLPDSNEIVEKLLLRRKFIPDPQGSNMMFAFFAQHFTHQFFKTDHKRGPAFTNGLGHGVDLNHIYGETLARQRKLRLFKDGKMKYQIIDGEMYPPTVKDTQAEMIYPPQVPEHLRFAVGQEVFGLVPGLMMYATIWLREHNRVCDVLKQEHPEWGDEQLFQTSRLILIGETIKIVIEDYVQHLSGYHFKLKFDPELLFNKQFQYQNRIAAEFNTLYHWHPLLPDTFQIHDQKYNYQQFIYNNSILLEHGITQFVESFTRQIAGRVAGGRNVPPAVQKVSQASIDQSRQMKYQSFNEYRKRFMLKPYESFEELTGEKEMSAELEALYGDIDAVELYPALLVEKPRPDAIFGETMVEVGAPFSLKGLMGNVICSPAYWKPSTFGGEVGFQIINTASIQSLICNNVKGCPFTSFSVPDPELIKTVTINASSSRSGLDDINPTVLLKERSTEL
Method: Acetylation assays were performed according to previously described procedures with minor modifications. […] To confirm the N-AS-mediated COX2 acetylation, 10 μg COX2 (WT or mutants) was used incubated with [^14C] N-AS (2 μCi, ARC UK Ltd, ARC-1024) at 37 °C for 2 h. [^14C] aspirin (2 μCi, ARC UK Ltd, ARC-0473) was conducted as the positive control. The reactions were terminated by placing the reaction tubes in ice for 5 min. To evaluate in vivo neuronal and microglial COX2 acetylation, 10 μCi [^14C] N-AS was orally administrated to 9-months-old WT and APP/PS1 mice. After 1 h, neuron and microglia were isolated and sonicated in culture media. To immunoprecipitate acetylated COX2, the sample was incubated with COX2 antibody (Abcam, ab15191) at 4 °C for 24 h and precipitated by adding 50 μl of protein-A sepharose (GE Healthcare). Acetylated COX2 proteins bound to the beads were analyzed using a Tri-Carb 3110TR liquid scintillation counter (Perkin-Elmer).

[1] = tissue concentrations at 24 h (brain, liver, kidney, heart; Supplementary Fig 3g); format: in vivo, C57BL/6 mice; design: Brain concentration (sFig 3g): unit not given here; settings: for Heart concentration (sFig 3g) / Kidney concentration (sFig 3g) / Liver concentration (sFig 3g) / Brain concentration (sFig 3g): 24 h, individual animals
Method: C57BL/6 mice were administered N-AS (Sigma-Aldrich, 01912) at doses of 1 mg kg^−1 (i.v.) or 10 mg kg^−1 (p.o.). Venous blood samples were collected at 5, 15, and 30 min, and 1, 2, 4, 8, and 24 h postdose. A 30 μl of plasma was separated from whole blood by centrifugation and stored at −80 °C until analysis. Also, brain samples were collected at 1, 2, 4, and 24 h postdose and heart, liver, and kidney samples were collected at 24 h postdose, thoroughly rinsed with physiological saline and weighed. Twenty percentage of tissue homogenates were prepared by homogenizing the tissue samples with four volumes of saline. A 30 μl aliquot of plasma or a 50 μl aliquot of tissue homogenates were deproteinized by addition of 200 μl cold methanol (containing naringenin as internal standard at 20 ng ml^−1) and centrifuged at 15,974×g for 10 min. A 10 μl aliquot of the supernatant was injected into Agilent 6470 LC-MS/MS system. Separation was performed on a Synergy Polar RP column (4 μm particle size, 2.0 mm ×150 mm, Phenomenex) using a mobile phase that consisted of methanol and water (85:15, v/v) with 0.1% formic acid at a flow rate of 0.2 ml min^−1. Quantification was carried out using multiple reaction monitoring (MRM) at m/z 340.3→263.3 for N-AS and m/z 271.1→151.3 for naringenin (internal standard) in negative ionization mode and collision energy of 20 eV. p, and relative oral BA values were calculated as follows: BA% = AUCp.o. normalized by p.o. dose/AUCi.v. normalized by i.v. dose × 100.

CCCCCCCCCCCCC/C=C/[C@@H](O)[C@H](CO)NC(C)=O [N-AS, N-((2S,3R,E)-1,3-Dihydroxyoctadec-4-en-2-yl)acetamide]
C14 radioactivity of COX2, acetylation assay (Fig 1h) (COX2 WT; COX2 WT, replicates, listed as C14 N-AS): 278534 and 277829 and 277497 and 262864 and 273318 and 276027
COX2 acetylation level, in words (COX2 WT; [14C] N-AS vs aspirin or SphK1-mediated acetylation): higher-level acetylation
tissue concentration of N-AS at 24 hours post administration, in words ([1]; brain vs liver, kidney, heart, i.v. 1 mg/kg or p.o. 10 mg/kg): brain showed the highest concentration of N-AS
Heart concentration (sFig 3g) ([1]; i.v 1mg/kg): 0
Kidney concentration (sFig 3g) ([1]; i.v 1mg/kg): 0
Liver concentration (sFig 3g) ([1]; i.v 1mg/kg): 0
Brain concentration (sFig 3g) ([1]; i.v 1mg/kg, 1 mg/kg): 13.15 and 12.57 and 8.38 and 7.48
Heart concentration (sFig 3g) ([1]; p.o. 10mg/kg): 0
Kidney concentration (sFig 3g) ([1]; p.o. 10mg/kg): 0
Liver concentration (sFig 3g) ([1]; p.o. 10mg/kg): 0
Brain concentration (sFig 3g) ([1]; p.o. 10mg/kg, 10 mg/kg): 20.2 and 32.76 and 11.3 and 29.06
